Experimental data published in patent US7723289B2, “PIF tetrapeptides” (BioIncept, LLC, priority 2003, dated 2010).
pIC50: −log10 of the molar value.

Tests used:
PBMC [1] = assay: PIF and analogues on release of cytokines +/- platebound mAbCD3 (Table 4); assay type: cell-based; set-up: IL-1β / TNFa / IL-4 / IL-5 / IL-6 / IL-10 / GM-CSM / IFN-g: unit not given here
[2] = test system: PIF-1 polyclonal antibody; assay: PIF-1 competitive ELISA, biotin labeled versus unlabeled peptide; assay type: binding, rabbits; conditions: 4.5 ug/ml pAb coating concentration; read-out: IC50 of dose response curve
PBMC [3] = assay: Time-dependent cytokine secretion by PBMC (Table 3); assay type: cell-based, human; conditions: for GM-CSF / IFN-y / IL-1β / IL-2 / IL-4 / IL-5 / IL-6 / IL-8 / IL-10 / TNF-α: 4 h post induction
Method: Detailed time dependent and multiple controls were used the secretion of several cytokines by PBMC (IL-2, IL-5, IL-8, GM-CSF, IL-4, IL-10, TNF-α, IFN-γβ, IL-1 and IL-6) were measured. […] By 4 hours, sPIF-1 blocked TNF alpha with recovery by 24 hours. Also INFgamma secretion initiated only after 48 hours. […] Effects on cytokines was already noted at 0.7 nM. Similar effects were found also with other mitogens LPS and PHA when PIF-1 was tested.

MVRIKPGSANKPSDD [sPIF-1(15)]
GM-CSM (PBMC [1]; C- (platebound mAbCD3), /1): 20.7
IFN-g (PBMC [1]; C- (platebound mAbCD3), /1): 122.6
IL-1β (PBMC [1]; C- (platebound mAbCD3), /1): 3.4
IL-2 (PBMC [1]; C- (platebound mAbCD3), /1): 21.4
IL-4 (PBMC [1]; C- (platebound mAbCD3), /1): 17.2
IL-5 (PBMC [1]; C- (platebound mAbCD3), /1): 0
IL-6 (PBMC [1]; C- (platebound mAbCD3), /1): 204.2
IL-8 (PBMC [1]; C- (platebound mAbCD3), /1): >5000
IL-10 (PBMC [1]; C- (platebound mAbCD3), /1): 72.9
TNFa (PBMC [1]; C- (platebound mAbCD3), /1): 135.7
GM-CSM (PBMC [1]; C- (platebound mAbCD3), /50): 29.1
IFN-g (PBMC [1]; C- (platebound mAbCD3), /50): 130.3
IL-1β (PBMC [1]; C- (platebound mAbCD3), /50): 4.4
IL-2 (PBMC [1]; C- (platebound mAbCD3), /50): 31.0
IL-4 (PBMC [1]; C- (platebound mAbCD3), /50): 17.9
IL-5 (PBMC [1]; C- (platebound mAbCD3), /50): 0
IL-6 (PBMC [1]; C- (platebound mAbCD3), /50): 287.7
IL-8 (PBMC [1]; C- (platebound mAbCD3), /50): >5000
IL-10 (PBMC [1]; C- (platebound mAbCD3), /50): 77.0
TNFa (PBMC [1]; C- (platebound mAbCD3), /50): 223.5
GM-CSM (PBMC [1]; U- (no mAbCD3), /1): 12.5
IFN-g (PBMC [1]; U- (no mAbCD3), /1): 0
IL-1β (PBMC [1]; U- (no mAbCD3), /1): 0
IL-2 (PBMC [1]; U- (no mAbCD3), /1): 19.9
IL-4 (PBMC [1]; U- (no mAbCD3), /1): 0
IL-5 (PBMC [1]; U- (no mAbCD3), /1): 0
IL-6 (PBMC [1]; U- (no mAbCD3), /1): 32.2
IL-8 (PBMC [1]; U- (no mAbCD3), /1): 963.0
IL-10 (PBMC [1]; U- (no mAbCD3), /1): 0
TNFa (PBMC [1]; U- (no mAbCD3), /1): 0
GM-CSM (PBMC [1]; U- (no mAbCD3), /50): 0
IFN-g (PBMC [1]; U- (no mAbCD3), /50): 0
IL-1β (PBMC [1]; U- (no mAbCD3), /50): 0
IL-2 (PBMC [1]; U- (no mAbCD3), /50): 0
IL-4 (PBMC [1]; U- (no mAbCD3), /50): 0
IL-5 (PBMC [1]; U- (no mAbCD3), /50): 0
IL-6 (PBMC [1]; U- (no mAbCD3), /50): 37.8
IL-8 (PBMC [1]; U- (no mAbCD3), /50): 1426.7
IL-10 (PBMC [1]; U- (no mAbCD3), /50): 0
TNFa (PBMC [1]; U- (no mAbCD3), /50): 0
pIC50 [2]: 9.15 to 9.30
concentration at which effects on cytokines was already noted (PBMC [3]): 0.7 nM
GM-CSF (PBMC [3]; substance alone): 0 pg/mL
IFN-y (PBMC [3]; substance alone): 0 pg/mL
IL-1β (PBMC [3]; substance alone): 0 pg/mL
IL-2 (PBMC [3]; substance alone): 0 pg/mL
IL-4 (PBMC [3]; substance alone): 0 pg/mL
IL-5 (PBMC [3]; substance alone): 0 pg/mL
IL-6 (PBMC [3]; substance alone): 0 pg/mL
IL-8 (PBMC [3]; substance alone): 684.5 pg/mL
IL-10 (PBMC [3]; substance alone): 0 pg/mL
TNF-α (PBMC [3]; substance alone): 0 pg/mL
GM-CSF (PBMC [3]; with MabCD3 coated wells): 0 pg/mL
IFN-y (PBMC [3]; with MabCD3 coated wells): 0 pg/mL
IL-1β (PBMC [3]; with MabCD3 coated wells): 0 pg/mL
IL-2 (PBMC [3]; with MabCD3 coated wells): 0 pg/mL
IL-4 (PBMC [3]; with MabCD3 coated wells): 0 pg/mL
IL-5 (PBMC [3]; with MabCD3 coated wells): 0 pg/mL
IL-6 (PBMC [3]; with MabCD3 coated wells): 17.5 pg/mL
IL-8 (PBMC [3]; with MabCD3 coated wells): 514.8 pg/mL
IL-10 (PBMC [3]; with MabCD3 coated wells): 0 pg/mL
TNF-α (PBMC [3]; with MabCD3 coated wells): 481.6 pg/mL
